Experimental data reported in US6541509B2 (priority 2000, dated 2003).
Read-outs that look alike come from different tables or passages of the source.

What was measured:
J774.2 = assay: cells; assay type: cell-based, mouse; settings: J774.2, 72 h, mean ± SE; for IC50: read-out: IC50 (drug concentration that inhibits cell division by 50%)
Protocol: (§1) The drug-sensitive mouse macrophage-like cell line, J774.2, and its Taxol-resistant cell line, J7-T3-1.6, were maintained as previously described. […] Drug-sensitive and vinblastine-resistant human ovarian carcinoma cell lines, SKOV3 and SKVLB, were obtained from Dr. V. Ling, and were maintained as previously described. Both J7-T3-1.6 and SKVLB cells overexpress P-glycoprotein. SKVLB cells were grown in the presence of 1 μM vinblastine. The Taxol-resistant human non-small-cell lung carcinoma cell line, A549-T12, was derived from the drug-sensitive A549 cell line; both cell lines were maintained as previously described.
(§2) For the A549 cell lines, cells were seeded at a density of 1×10^4 cells/mL (A549) or 3×10^4 cells/mL (A549-T12), in triplicate, 6-well plates, and allowed to attach for 24 h. […] The SKOV3 and SKVLB cell lines were assayed in a similar manner. Cells were seeded in triplicate, at a density of 6×10^3 cells/mL (SKOV3) or 12×10^3 cells/mL (SKVLB), in 6-well plates, and incubated with a drug for 6 days. […] J774.2 and J7-T3-1.6 cells were plated at a density of 2×10^4 cells/well, in 96-well plates, and allowed to attach overnight. Serial dilutions of each drug were performed, and the cells were incubated for 72 h. The IC50 was determined using the CellTiter 96™ AQueous nonradioactive cell proliferation assay (Promega, Madison, Wis.), which correlates with the number of live cells. Different methods for determining IC50 values were used, depending on the most accurate method for each particular set of cell lines.

J7-T3-1.6 = assay: cells; assay type: cell-based, mouse; settings: for IC50: J7-T3-1.6, 72 h, mean ± SE, read-out: IC50 (drug concentration that inhibits cell division by 50%); for Fold resistance (ratio of IC50 J7-T3-1.6 to J774.2): after 72 h
Protocol: as §1, §2

A549-T12 cells [1] = assay type: cell-based, human; settings: for Cell-cycle profile: 48 h, 2 nM Taxol, discodermolide 2 or 6 nM, other drugs as in FIG. 5; for Reversal of the G2-M-phase block induced by Taxol removal: 48 h without Taxol, then 48 h with drug, discodermolide 0.001-24.0 nM, data not shown
Protocol: Cells were incubated with the different agents for 48 h, fixed, stained with propidium iodide, and analyzed by flow cytometry, as described below.
For the drug substitution experiments, A549-T12 cells were seeded at a density of 3×10^4 cells/mL in 75-cm^2 flasks, and treated with various drugs at the indicated concentrations (FIG. 5). After 48 h, both adherent and nonadherent cells were harvested, fixed in 70% ethanol for at least 20 min, permeabilized with 0.1% Triton X-100 in PBS for 3 min, and stained for 30 min at 37° C. with 10 μg/mL of propidium iodide (Sigma) in a PBS solution containing 1 μg/mL of RNase A (Boehringer Mannheim, Indianapolis, Ind.). Cell-cycle analysis was performed using the Becton Dickinson FACScan and the CellQuest program. […] The cells then were prepared as described above.

A549-T12 = assay: cells; assay type: cell-based, human; settings: for IC50: read-out: IC50 (drug concentration that inhibits cell division by 50%)
Protocol: as §1, §2

SKOV3 = assay: cells; assay type: cell-based, human; settings: SKOV3, 6 days, mean ± SE; for IC50: read-out: IC50 (drug concentration that inhibits cell division by 50%)
Protocol: as §1, §2

A549 = assay: cells; assay type: cell-based, human; settings: for IC50: read-out: IC50 (drug concentration that inhibits cell division by 50%)
Protocol: as §1, §2

SKVLB = assay: cells; assay type: cell-based, human; settings: for IC50: SKVLB, 6 days, mean ± SE, read-out: IC50 (drug concentration that inhibits cell division by 50%); for Fold resistance (ratio of IC50, SKVLB and SKOV3): after 6 days
Protocol: as §1, §2

A549-T12 cells [2] = assay type: cell-based, human; settings: 48 h; concentrations as in FIG. 4
Protocol: A549-T12 cells were grown on cover slips and treated with the different compounds for 48 h. Cells were then permeabilized, fixed, and incubated with an α-tubulin antibody, as described below.
A549-T12 cells, which were grown to subconfluency on glass cover slips in the absence of drug or in the presence of different drugs at varying concentrations (FIG. 4), were prepared for immunofluorescence microscopy as previously described, with the following modifications: (a) nonspecific binding was blocked using 10% normal goat serum in PBS for 30 min at 37° C.; (b) cells were incubated with a monoclonal antibody to α-tubulin (Sigma; 1:100 dilution; 5% normal goat serum in PBS), followed by a Cy3-conjugated anti-mouse IgG secondary antibody (Amersham, Arlington Heights, Ill.; 1:1000 dilution); and (c) slides were analyzed using the Zeiss Axioskop microscope (rhodamine filter) at 63× magnification.

microtubules = assay: In vitro microtubule polymerization assay; assay type: biochemical; settings: in the absence of GTP
A549-T12 cells [3] = assay: Methylene blue growth assay; assay type: cell-based, human; settings: 8 to 11 days
Protocol: (§3) FIG. 2 illustrates that A549-T12 cells require Taxol for normal growth. A549 and A549-T12 cells were grown in the absence or presence of various concentrations of Taxol for 8 to 11 days. The cells were then stained with methylene blue, as described below.
(§4) Cells were seeded in 24-well plates at a density of 400 cells/well (A549) or 500 cells/well (A549-T12), and treated with different concentrations of Taxol. Following 8 to 11 days of growth, the medium was removed, and cells were stained with 0.5% methylene blue (Sigma) in 50% ethanol for 20 min, then rinsed with distilled water (FIG. 2).

A549 cells = assay: Methylene blue growth assay; assay type: cell-based, human; settings: 8 to 11 days
Protocol: as §3, §4

[4] = A549-T12, 72 h, cells maintained in 2 nM Taxol, mean ± SE
[5] = Homo sapiens, Ovarian carcinoma cell, 144 h
[6] = Homo sapiens, A549-T12, 72 h, cells maintained in 2 nM Taxol, mean ± SE
[7] = Homo sapiens, A549, 72 h, mean ± SE

| Structure (SMILES) | IC50 (J774.2) [nM] | IC50 (J7-T3-1.6) [nM] | Fold resistance (ratio of IC50 J7-T3-1.6 to J774.2) (J7-T3-1.6) [fold] | Cell-cycle profile (A549-T12 cells [1]) | Reversal of the G2-M-phase block induced by Taxol removal (A549-T12 cells [1]) | Fold resistance (ratio of IC50 A549-T12 to A549) (A549-T12; 72 h) [fold] | IC50 (A549-T12; [4]) [nM] | IC50 (drug concentration that inhibits cell division by 50%) (SKOV3) | IC50 (SKOV3) [nM] | IC50 (drug concentration that inhibits cell division by 50%) (A549; A549, 72 h, mean ± SE) | IC50 (A549; A549, 72 h, mean ± SE) [nM] | IC50 (SKVLB) [nM] | Fold resistance (ratio of IC50, SKVLB and SKOV3) (SKVLB) | Microtubule cytoskeleton / ability to substitute for Taxol (A549-T12 cells [2]) | Assembly of microtubules (microtubules) | IC50 (drug concentration that inhibits cell division by 50%) (J774.2) | IC50 (J774.2; Mus musculus) [nM] | IC50 (J7-T3-1.6; Mus musculus) [nM] | IC50 (SKOV3; Homo sapiens, SK-OV-3, 144 h) [nM] | IC50 (SKVLB; [5]) [nM] | further results |
| --- | --- | --- | --- | --- | --- | --- | --- | --- | --- | --- | --- | --- | --- | --- | --- | --- | --- | --- | --- | --- | --- |
| C/C(=C\c1csc(C)n1)[C@@H]1C[C@@H]2O[C@@H]2CCC[C@H](C)[C@H](O)[C@@H](C)C(=O)C(C)(C)[C@@H](O)CC(=O)O1 [EpoA, epothilone A] | 10.6 ± 2 | 170 ± 14 | 16 | normal cell-cycle profile | return of a normal cell-cycle profile | 5.3 | 34 ± 3.1 | decreased but similar responses | 10.3 ± 4.5 | comparable activities | 6.4 ± 2 | 190 ± 14 | 18.5 fold | normal microtubule cytoskeleton |  |  |  |  |  |  | Fold resistance (ratio of IC50 J7-T3-1.6 to J774.2) (J7-T3-1.6; listed as epothilone A): low resistance; Fold resistance (ratio of IC50 A549-T12 to A549) (A549-T12; 72 h, listed as epothilone A): cross-resistance; Fold resistance (ratio of IC50, SKVLB and SKOV3) (SKVLB; listed as epothilone A): low-level cross-resistance |
| CO[C@]12C=C[C@](C)(O1)[C@@H](OC(=O)/C=C/c1cn(C)cn1)C[C@H]1C(C)=CC[C@H](C(C)C)[C@H]1/C=C\2CO[C@@H]1OC[C@@H](O)[C@@H](O)[C@@H]1OC(C)=O [Eleu, eleutherobin] |  |  | >12.7 | normal cell-cycle profile | return of a normal cell-cycle profile |  |  | decreased but similar responses |  |  |  |  | >609.8 fold | normal microtubule cytoskeleton | enhanced the assembly of stable microtubules | quite insensitive | 394 ± 5.8 | > 5000 | 8.2 ± 3.8 | > 5000 | IC50 (A549-T12; Homo sapiens, 72 h): 69 ± 11.3 nM; IC50 (drug concentration that inhibits cell division by 50%) (A549): comparable activities; IC50 (A549; Homo sapiens, A549, 72 h): 14 ± 2.8 nM; Fold resistance (ratio of IC50, SKVLB and SKOV3) (SKVLB; listed as eleutherobin): definite cross-resistance |
| C/C(=C\c1csc(C)n1)[C@@H]1C[C@@H]2O[C@]2(C)CCC[C@H](C)[C@H](O)[C@@H](C)C(=O)C(C)(C)[C@@H](O)CC(=O)O1 [EpoB, epothilone B] | 0.4 ± 0.1 | 12 ± 4 | 30 | normal cell-cycle profile | return of a normal cell-cycle profile | 4.7 | 3.3 ± 0.72 | highest sensitivity | 0.5 ± 0.09 | more potent | 0.7 ± 0.1 | 9.5 ± 2.1 | 19.0 fold | normal microtubule cytoskeleton |  | most sensitive |  |  |  |  | Fold resistance (ratio of IC50 J7-T3-1.6 to J774.2) (J7-T3-1.6; listed as epothilone B): low resistance; Fold resistance (ratio of IC50 A549-T12 to A549) (A549-T12; 72 h, listed as epothilone B): cross-resistance; Fold resistance (ratio of IC50, SKVLB and SKOV3) (SKVLB; listed as epothilone B): low-level cross-resistance |
| CC[C@]1(O)C[C@@H]2CN(CCc3c([nH]c4ccccc34)[C@@](C(=O)OC)(c3cc4c(cc3OC)N(C)[C@H]3[C@@](O)(C(=O)OC)[C@H](OC(C)=O)[C@]5(CC)C=CCN6CC[C@]43[C@@H]65)C2)C1 [VBL, vinblastine] |  |  | 127.8 | mitotic block | irreversible | 1.0 |  | highest sensitivity |  |  |  |  | 1,709.4 fold | Neither discodermolide nor vinblastine was able to substitute for Taxol |  |  | 6 ± 2.7 | 767 ± 351 | 1.1 ± 0.1 | 1880 | Fold resistance (ratio of IC50 J7-T3-1.6 to J774.2) (J7-T3-1.6; listed as vinblastine): significant cross-resistance; Fold resistance (ratio of IC50 A549-T12 to A549) (A549-T12; 72 h, listed as vinblastine): no cross-resistance; IC50 (A549-T12; [6]): 1.8 ± 0.18 nM; IC50 (A549; [7]): 1.8 nM |
| CC(=O)O[C@H]1C(=O)[C@@]2(C)[C@H]([C@H](OC(=O)c3ccccc3)[C@]3(O)C[C@H](OC(=O)[C@H](O)[C@@H](NC(=O)c4ccccc4)c4ccccc4)C(C)=C1C3(C)C)[C@]1(OC(C)=O)CO[C@@H]1C[C@@H]2O [Taxol, paclitaxel] |  |  | 268.7 | normal cell-cycle profile | return of a normal cell-cycle profile |  |  | decreased but similar responses |  |  |  |  | 6,666.5 fold | normal microtubule cytoskeleton | enhanced the assembly of stable microtubules |  | 67 ± 7 | 18000 | 2 ± 0.1 | 13300 | Cell growth (A549-T12 cells [3]; 6 nM Taxol): grew normally; Taxol level required by the cell line for normal growth (A549-T12 cells [3]): 2 to 6 nM; Cell growth (A549 cells; 6 nM Taxol): cytotoxic; Cell growth (A549 cells; subnanomolar concentrations of Taxol): unaffected; IC50 (A549-T12; [6]): 18.7 ± 0.9 nM; IC50 (A549; [7]): 2 ± 0.14 nM |
